Assay results reported in patent US4581354A, “3-arylcarbonyl- and 3-cycloalkylcarbonyl-1-aminoalkyl-1H-indoles, compositions and use” (Sterling Drug Inc., priority 1985, dated 1986).
Where a name gives a salt, the structure may show the parent alone.

What follows are molecules tested on acetylcholine-induced abdominal constriction (assay: animal or person). Conditions: 300 mg./kg. (p.o.); Preparations.
Assay type: in vivo, mice

**Q.** `CS(=O)(=O)O.Cc1cc2ccccc2n1C(C)CN1CCOCC1.O` (stereo not shown) [Preparation 5A, 2-methyl-1-[1-methyl-2-(4-morpholinyl)ethyl]-1H-indole methanesulfonate hydrate] was tested. Which “inhibition in acetylcholine-induced abdominal constriction test” value did it give?
**A.** Its value is 40%.

Same assay, conditions: Mus musculus, iv, 3 mg./kg. i.v.; read-out: Ach percent inhibition

**Q.** With `Cc1c(C(=O)c2cccc3ccccc23)c2ccccc2n1CC(O)CN1CCCC1` (stereo not shown) [Example 31F] as the molecule, how does the inhibition in vivo at 3 mg/kg read?
**A.** Its inhibition in vivo at 3 mg/kg is 0%.

Same assay, conditions: Mus musculus, iv, 10 mg./kg. i.v.; read-out: Ach percent inhibition

**Q.** With `COc1ccc(C(=O)c2c(C)n(CC(O)CN3CCCC3)c3ccccc23)cc1` (stereo not shown) [Example 31H] as the molecule, how does the inhibition in vivo at 10 mg/kg read?
**A.** Its inhibition in vivo at 10 mg/kg is 80%.

Same assay, conditions: Mus musculus, po, 100 mg./kg. oral; Table D, formula II intermediates (Preparations); read-out: Ach percent inhibition

**Q.** How did the inhibition in vivo at 100 mg/kg turn out when `Cc1[nH]c2ccccc2c1C(=O)c1ccccc1-c1ccccc1` [Preparation 1AK] was run?
**A.** Its inhibition in vivo at 100 mg/kg is 20%.

**Q.** With `Cc1[nH]c2ccccc2c1C(=O)c1ccc(-c2ccccc2)cc1` [Preparation 1AL] as the molecule, how does the inhibition in vivo at 100 mg/kg read?
**A.** The inhibition in vivo at 100 mg/kg was 20%.

**Q.** With `COc1cc(OC)cc(C(=O)c2c(C)[nH]c3ccccc23)c1` [Preparation 1AO] as the molecule, how does the inhibition in vivo at 100 mg/kg read?
**A.** The inhibition in vivo at 100 mg/kg was 40%.

**Q.** For `COc1ccc(C(=O)c2c(C)[nH]c3ccc(F)cc23)cc1` [Preparation 1F, 2-methyl-5-fluoro-3-(4-methoxybenzoyl)indole], which inhibition in vivo at 100 mg/kg is on record?
**A.** Its inhibition in vivo at 100 mg/kg is 0%.

Same assay, conditions: Mus musculus, po, 100 mg./kg. oral; read-out: Ach percent inhibition

**Q.** How did the inhibition in vivo at 100 mg/kg turn out when `Cc1c(C(=O)c2ccc(O)cc2)c2cc(F)ccc2n1CCCN1CCOCC1` [Example 16B, 5-fluoro-2-methyl-3-(4-hydroxybenzoyl)-1-[3-(4-morpholinyl)propyl]-1H-indole hydrochloride] was run?
**A.** Its inhibition in vivo at 100 mg/kg is 20%.

**Q.** How did the inhibition in vivo at 100 mg/kg turn out when `COc1ccc(C(=O)c2c(C)n(CCN3CCOCC3)c3cc(O)ccc23)cc1` [Example 18, 6-hydroxy-2-methyl-3-(4-methoxybenzoyl)-1-[2-(4-morpholinyl)ethyl]-1H-indole hydrochloride hydrate (3:4)] was run?
**A.** Its inhibition in vivo at 100 mg/kg is 30%.

**Q.** For `COc1ccc(C(=O)C=Cc2c(C)n(CCN3CCOCC3)c3ccccc23)cc1` [Example 19, 1-{2-methyl-1-[2-(4-morpholinyl)ethyl]-1H-indol-3-yl}-3-(4-methoxyphenyl)propen-3-one monohydrochloride], which inhibition in vivo at 100 mg/kg is on record?
**A.** Its inhibition in vivo at 100 mg/kg is 40%.

**Q.** `Cc1c(C(=O)C=Cc2ccccc2F)c2ccccc2n1CCN1CCOCC1` [Example 20B, 3-(2-fluorocinnamoyl)-2-methyl-1-[2-(4-morpholinyl)ethyl]-1H-indole] was tested. Which inhibition in vivo at 100 mg/kg did it give?
**A.** Its inhibition in vivo at 100 mg/kg is 40%.

**Q.** With `COCCNc1ccc(C(=O)c2c(C)n(CCN3CCOCC3)c3ccccc23)cc1` [Example 26A, 2-methyl-3-[4-(2-methoxyethylamino)benzoyl]-1-[2-(4-morpholinyl)ethyl]-1H-indole] as the molecule, how does the inhibition in vivo at 100 mg/kg read?
**A.** The inhibition in vivo at 100 mg/kg was 40%.

**Q.** For `Cc1c(C(=O)c2ccc(N3CCCC(O)C3)cc2)c2ccccc2n1CCN1CCOCC1` (stereo not shown) [Example 26B], which inhibition in vivo at 100 mg/kg is on record?
**A.** The inhibition in vivo at 100 mg/kg was 40%.

**Q.** For `Cc1c(C(=O)c2ccc(N3CCNCC3)cc2)c2ccccc2n1CCN1CCOCC1` [Example 26C], which inhibition in vivo at 100 mg/kg is on record?
**A.** The inhibition in vivo at 100 mg/kg was 30%.

**Q.** Which inhibition in vivo at 100 mg/kg does the source give for `Cc1c(C(=O)c2ccc(N3CCC(O)CC3)cc2)c2ccccc2n1CCN1CCOCC1` [Example 26D] here?
**A.** The inhibition in vivo at 100 mg/kg was 30%.

**Q.** For `Cc1c(C(=O)c2ccc(N3CCOCC3)cc2)c2ccccc2n1CCN1CCOCC1` [Example 26G], which inhibition in vivo at 100 mg/kg is on record?
**A.** The inhibition in vivo at 100 mg/kg was 20%.

**Q.** For `COc1ccc(C(=O)c2c(C)n(CCCNCCCCl)c3ccccc23)cc1` [Example 28, 1-[3-(3-chloropropylamino)propyl]-2-methyl-3-(4-methoxybenzoyl)-1H-indole hydrochloride], which inhibition in vivo at 100 mg/kg is on record?
**A.** Its inhibition in vivo at 100 mg/kg is 90%.

**Q.** `COc1ccc(C(=O)c2c(C)n(CCCN3CC[S+]([O-])CC3)c3ccc(F)cc23)cc1` [Example 29A, 5fluoro-2-methyl-3-(4-methoxybenzoyl)-1-[3-(4-thiomorpholinyl)propyl]-1H-indole S-oxide maleate] was tested. Which inhibition in vivo at 100 mg/kg did it give?
**A.** The inhibition in vivo at 100 mg/kg was 60%.

**Q.** For `COc1ccc(C(=O)c2c(C)n(CCN3CC[S+]([O-])CC3)c3ccccc23)cc1` [Example 29B, 2-methyl-3-(4-methoxybenzoyl)-1-[2-(4-thiomorpholinyl)ethyl]-1H-indole S-oxide maleate], which inhibition in vivo at 100 mg/kg is on record?
**A.** The inhibition in vivo at 100 mg/kg was 60%.

**Q.** How did the inhibition in vivo at 100 mg/kg turn out when `COc1ccc(C(=O)c2c(C)n(CC[N+]3([O-])CC[S+]([O-])CC3)c3ccccc23)cc1` (stereo not shown) [Example 29C, 2-methyl-3-(4-methoxybenzoyl)-1-[2-(4-thiomorpholinyl)ethyl]-1H-indole S,N-dioxide dihydrate] was run?
**A.** Its inhibition in vivo at 100 mg/kg is 0%.

**Q.** With `Cc1c(C(=O)c2ccccc2)c2cc(O)ccc2n1CCN1CCOCC1` [Example 30, 3-benzoyl-5-hydroxy-2-methyl-1-[2-(4-morpholinyl)ethyl]-1H-indole] as the molecule, how does the inhibition in vivo at 100 mg/kg read?
**A.** The inhibition in vivo at 100 mg/kg was 10%.

**Q.** With `CCN(CC)CC(O)Cn1c(C)c(C(=O)c2ccc(OC)cc2)c2ccccc21` (stereo not shown) [Example 31-O] as the molecule, how does the inhibition in vivo at 100 mg/kg read?
**A.** Its inhibition in vivo at 100 mg/kg is 100%.

**Q.** How did the inhibition in vivo at 100 mg/kg turn out when `COc1ccc(C(=O)c2c(C)n(CC(O)CN=[N+]=[N-])c3ccccc23)cc1` (stereo not shown) [Example 31J, 1-(3-azido-2-hydroxy-1-propyl)-2-methyl-3-(4-methoxybenzoyl)-1H-indole] was run?
**A.** Its inhibition in vivo at 100 mg/kg is 10%.

**Q.** How did the inhibition in vivo at 100 mg/kg turn out when `CCNCC(O)Cn1c(C)c(C(=O)c2ccc(OC)cc2)c2ccccc21` (stereo not shown) [Example 31N] was run?
**A.** The inhibition in vivo at 100 mg/kg was 90%.

Same assay, conditions: Mus musculus, po; Preparations; read-out: ED50 in acetylcholine-induced abdominal constriction test

**Q.** How did the ED50 turn out when `Cc1cc2cc(F)ccc2n1C(C)CN(C)C` (stereo not shown) [Preparation 8, 5-fluoro-2-methyl-1-(1-methyl-2-dimethylaminoethyl)-1H-indole] was run?
**A.** Its ED50 is 25 mg/kg.

Same assay, conditions: Mus musculus, po; read-out: Ach ED50

**Q.** `Cc1ccccc1C=CC(=O)c1c(C)n(CCN2CCOCC2)c2ccccc12` [Example 20A, 3-(2-methylcinnamoyl)-2-methyl-1-[2-(4-morpholinyl)ethyl]-1H-indole] was tested. Which ED50 did it give?
**A.** The ED50 was 128 mg/kg.

**Q.** With `COc1ccc(C(=O)c2c(C)n(CCN3CCCC(OC(C)=O)C3)c3ccccc23)cc1.O=C(O)/C=C\C(=O)O` (stereo not shown) [Example 21, 1-[2-(3-acetoxy-1-piperidinyl)ethyl]-2-methyl-3-(4-methoxybenzoyl)-1H-indole maleate (1:1)] as the molecule, how does the ED50 read?
**A.** Its ED50 is 31 mg/kg.

**Q.** For `CCOC(=O)N1CCN(CCn2c(C)c(C(=O)c3ccc(OC)cc3)c3ccccc32)CC1.O=C(O)/C=C\C(=O)O` [Example 22, 1-[2-(4-carbethoxy-1-piperazinyl)ethyl]-2-methyl-3-(4-methoxybenzoyl)-1H-indole maleate (1:1)], which ED50 is on record?
**A.** Its ED50 is 66.8 mg/kg.

**Q.** With `COc1ccc(C(=O)c2c(C)n(CCN3CCN(C(C)=O)CC3)c3ccccc23)cc1.O=C(O)/C=C\C(=O)O` [Example 23A, 1-[2-(4-acetyl-1-piperazinyl)ethyl]-2-methyl-3-(4-methoxybenzoyl)-1H-indole maleate (1:1)] as the molecule, how does the ED50 read?
**A.** Its ED50 is 85 mg/kg.

**Q.** `COc1ccc(C(=O)c2c(C)n(CCCN3CCN(C(C)=O)CC3)c3ccc(F)cc23)cc1.CS(=O)(=O)O` [Example 23B, 5-fluoro-2-methyl-3-(4-methoxybenzoyl)-1-[3-(4-acetyl-1-piperazinyl)propyl]-1H-indole methanesulfonate] was tested. Which ED50 did it give?
**A.** Its ED50 is 39 mg/kg.

**Q.** Which ED50 does the source give for `COc1ccc(C(=O)c2c(C)n(CCCN)c3ccc(F)cc23)cc1.O=C(O)/C=C\C(=O)O` [Example 25A, 1-(3-aminopropyl)-5-fluoro-2-methyl-3-(4-methoxybenzoyl)-1H-indole maleate (1:1)] here?
**A.** The ED50 was 82.5 mg/kg.

**Q.** Which ED50 does the source give for `COc1ccc(C(=O)c2c(C)n(CCN)c3ccccc23)cc1.O=C(O)/C=C\C(=O)O` [Example 25B, 1-(2-aminoethyl)-2-methyl-3-(4-methoxybenzoyl)-1H-indole maleate] here?
**A.** Its ED50 is 42 mg/kg.

**Q.** `Cc1c(C(=O)c2ccc(-n3ccnc3)cc2)c2ccccc2n1CCN1CCOCC1` [Example 26E] was tested. Which ED50 did it give?
**A.** Its ED50 is 73.1 mg/kg.

**Q.** How did the ED50 turn out when `Cc1c(C(=O)c2ccc(-n3ccnc3)cc2)c2cc(F)ccc2n1CCCN1CCOCC1` [Example 26F] was run?
**A.** Its ED50 is 61 mg/kg.

**Q.** Which ED50 does the source give for `COc1ccc(C(=O)c2c(C)n(CCN3CCNCC3)c3ccccc23)cc1.CS(=O)(=O)O.CS(=O)(=O)O` [Example 27A, 2-methyl-3-(4-methoxybenzoyl)-1-[2-(1-piperazinyl)ethyl]-1H-indole dimethanesulfonate] here?
**A.** The ED50 was 20.7 mg/kg.

**Q.** How did the ED50 turn out when `COc1ccc(C(=O)c2c(C)n(CCNCCO)c3ccccc23)cc1` [Example 27B, 1-[2-(2-hydroxyethylamino)ethyl]-2-methyl-3-(4-methoxybenzoyl)-1H-indole] was run?
**A.** The ED50 was 59.8 mg/kg.

**Q.** For `COc1ccc(C(=O)c2c(C)n(CCN3CCCC(N)C3)c3ccccc23)cc1.O=C(O)/C=C\C(=O)O.O=C(O)/C=C\C(=O)O` (stereo not shown) [Example 27C, 1-[2-(3-amino-1-piperidinyl)ethyl]-2-methyl-3-(4-methoxybenzoyl)-1H-indole maleate (1:2)], which ED50 is on record?
**A.** Its ED50 is 29.4 mg/kg.

**Q.** For `COc1ccc(C(=O)c2c(C)n(CCCN3CCNCC3)c3ccc(F)cc23)cc1.CS(=O)(=O)O.CS(=O)(=O)O` [Example 27D, 5-fluoro-2-methyl-3-(4-methoxybenzoyl)-1-[3-(1-piperazinyl)propyl]-1H-indole dimethanesulfonate], which ED50 is on record?
**A.** Its ED50 is 30 mg/kg.

**Q.** With `COc1ccc(C(=O)c2c(C)n(CC(O)CN3CCOCC3)c3ccc(F)cc23)cc1.Cl.O` (stereo not shown) [Example 31A, 1-[2-hydroxy-3-(4-morpholinyl)propyl]-5-fluoro-2-methyl-3-(4-methoxybenzoyl)-1H-indole hydrochloride hydrate] as the molecule, how does the ED50 read?
**A.** Its ED50 is 58 mg/kg.

**Q.** `COc1ccc(C(=O)c2c(C)n(CC(O)CN3CCCC3)c3ccc(F)cc23)cc1` (stereo not shown) [Example 31C] was tested. Which ED50 did it give?
**A.** Its ED50 is 53 mg/kg.

**Q.** How did the ED50 turn out when `COc1ccc(C(=O)c2c(C)n(CC(O)CN3CCOCC3)c3ccccc23)cc1` (stereo not shown) [Example 31G] was run?
**A.** Its ED50 is 133 mg/kg.

**Q.** With `COc1ccc(C(=O)c2c(C)n(CC(O)CN3CCCC3)c3ccccc23)cc1` (stereo not shown) [Example 31H] as the molecule, how does the ED50 read?
**A.** The ED50 was 56 mg/kg.

**Q.** Which ED50 does the source give for `COc1ccc(C(=O)c2c(C)n(CC(O)CN3CCC3)c3ccccc23)cc1` (stereo not shown) [Example 31K] here?
**A.** Its ED50 is 28 mg/kg.

**Q.** Which ED50 does the source give for `COc1ccc(C(=O)c2c(C)n(CC(O)CN(C)C)c3ccccc23)cc1` (stereo not shown) [Example 31L] here?
**A.** The ED50 was 32 mg/kg.

**Q.** `COc1ccc(C(=O)c2c(C)n(CC(O)CNC(C)C)c3ccccc23)cc1` (stereo not shown) [Example 31M] was tested. Which ED50 did it give?
**A.** Its ED50 is 26 mg/kg.

**Q.** For `COc1ccc(C(=O)c2c(C)n(CC(O)CN)c3ccccc23)cc1` (stereo not shown) [Example 32, 1-(3-amino-2-hydroxy-1-propyl)-2-methyl-3-(4-methoxybenzoyl)-1H-indole], which ED50 is on record?
**A.** The ED50 was 85 mg/kg.
